{"source": "patent US10800792B2", "about": "“Inhibitors of Bruton's tyrosine kinase and method of their use” (JANSSEN PHARMACEUTICA NV, priority 2015, dated 2020)"}
{"target": "unphosphorylated-BTK kinase domain (UP-BTK), GST-tagged human BTK (389-659aa) (Homo sapiens (Human), UniProt Q06187)", "sequence (Q06187 389-659)": "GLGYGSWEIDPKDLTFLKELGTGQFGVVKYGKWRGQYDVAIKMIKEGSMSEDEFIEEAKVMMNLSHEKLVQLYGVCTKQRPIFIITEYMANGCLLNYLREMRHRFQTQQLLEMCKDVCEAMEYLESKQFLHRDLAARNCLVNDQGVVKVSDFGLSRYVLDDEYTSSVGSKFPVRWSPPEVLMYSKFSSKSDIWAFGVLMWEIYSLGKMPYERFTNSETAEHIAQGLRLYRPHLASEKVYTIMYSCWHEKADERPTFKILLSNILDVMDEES", "assay": "BTK kinase Lanthascreen binding assay", "settings": "Lanthascreen tracer competition, 60 minutes incubation; pIC50 = negative log of the IC50 in molar", "method_in_brief": "(§1)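 Compound binding to the unphosphorylated kinase domain was monitored by displacement of a fluorescently labelled tracer in a Lanthascreen format. Potency is given as pIC50, the negative log of the molar IC50.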"}
{"compound": "C=CS(=O)(=O)N1CC[C@@H](NC(=O)c2sc3nccc4c3c2NC(=O)N4c2ccc(Oc3ccccc3)cc2C)C1", "note": "(single isomer, unassigned) [Example 834, (R)-5-(*S)-(2-Meth-4-phenoxyphenyl)-4-oxo-N-(1-(vinylsulfonyl)pyrrolidin-3-yl)-4,5-dihydro-3H-1-thia-3,5,8-triazaacenaphthylene-2-carboxamide]", "BTK_I_binding pIC50": 8.0}
{"compound": "O=C(CCCC(=O)NCCCOCCOCCOCCCNC(=O)CCCC[C@H]1SC[C@H]2NC(=O)N[C@H]21)NC/C=C/C(=O)N1CCCC(NC(=O)c2sc3nccc4c3c2NC(=O)N4c2ccc(Oc3ccccc3)cn2)C1", "note": "(stereo partly drawn) [Example 780, N^1-(15-Oxo-19-((3aR,4R,6aS)-2-oxohexahydro-1H-thieno[3,4-d]imidazol-4-yl)-4,7,10-trioxa-14-azanonadecyl)-N^5-((E)-4-oxo-4-(3-(4-oxo-5-(5-phenoxypyridin-2-yl)-4,5-dihydro-3H-1-thia-3,5,8-triazaacenaphthylene-2-carboxamido)piperidin-1-yl)but-2-en-1-yl)glutaramide]", "BTK_I_binding pIC50": 6.3}
{"compound": "O=C(N[C@@H]1CCCNC1)c1sc2nccc3c2c1NC(=O)N3c1ccnc(C2CCCC2)c1", "note": "[Example 720, (R)-5-(2-Cyclopentylpyridin-4-yl)-4-oxo-N-(piperidin-3-yl)-4,5-dihydro-3H-1-thia-3,5,8-triazaacenaphthylene-2-carboxamide]", "BTK_I_binding pIC50": 6.2}
{"compound": "CN1CCC[C@@H](NC(=O)c2sc3nccc4c3c2NC(=O)N4c2cccc(-c3cccc(F)c3F)c2)C1", "note": "[Example 710, (R)-5-(2′,3′-Difluoro-[1,1′-biphenyl]-3-yl)-N-(1-methylpiperidin-3-yl)-4-oxo-4,5-dihydro-3H-1-thia-3,5,8-triazaacenaphthylene-2-carboxamide]", "BTK_I_binding pIC50": 7.4}
{"compound": "Cc1cc(OCC(C)C)ncc1N1C(=O)Nc2c(C(=O)N[C@@H]3CCCNC3)sc3nccc1c23", "note": "(single isomer, unassigned) [Example 759, (R)-5-(*S)-(6-Isobutoxy-4-methylpyridin-3-yl)-4-oxo-N-(piperidin-3-yl)-4,5-dihydro-3H-1-thia-3,5,8-triazaacenaphthylene-2-carboxamide]", "BTK_I_binding pIC50": 6.7}
{"compound": "C=CC(=O)N1CCC[C@@H](NC(=O)c2sc3nccc4c3c2NC(=O)N4c2ccc(OC3CCC3)nc2C)C1", "note": "[Example 704, (R)—N-(1-Acryloylpiperidin-3-yl)-5-(6-cyclobutoxy-2-methylpyridin-3-yl)-4-oxo-4,5-dihydro-3H-1-thia-3,5,8-triazaacenaphthylene-2-carboxamide]", "BTK_I_binding pIC50": 6.6}
{"target": "unphosphorylated-BTK kinase domain (UP-BTK), GST-tagged human BTK (389-659aa) (Homo sapiens (Human), UniProt Q06187)", "assay": "BTK kinase Lanthascreen binding assay", "settings": "pIC50 = negative log of the IC50 in molar; 60 minutes incubation, 50 nM Tracer 236", "method_in_brief": "as §1"}
{"compound": "Cc1c(Oc2ccccc2)ccc(N2C(=O)Nc3c(C(=O)N[C@@H]4CCCN(C)C4)sc4nccc2c34)c1C", "note": "[Example 281, (R)-5-(2,3-Dimethyl-4-phenoxyphenyl)-N-(1-methylpiperidin-3-yl)-4-oxo-4,5-dihydro-3H-1-thia-3,5,8-triazaacenaphthylene-2-carboxamide]", "BTK_I_binding pIC50": 6.2}
{"compound": "Cc1cc(Oc2ccccc2)ccc1N1C(=O)Nc2c(C(=O)NC3CCNC(=O)C3)sc3nccc1c23", "note": "(stereo not shown) [Example 166, 5-(2-Methyl-4-phenoxyphenyl)-4-oxo-N-(2-oxopiperidin-4-yl)-4,5-dihydro-3H-1-thia-3,5,8-triazaacenaphthylene-2-carboxamide]", "BTK_I_binding pIC50": 6.9}
{"compound": "C=CC(=O)N1CCC[C@@H](NC(=O)c2sc3nccc4c3c2NC(=O)N4c2ccc(Oc3ccccc3)c(F)c2C)C1", "note": "[Example 4, (R)—N-(1-Acryloylpiperidin-3-yl)-5-(3-fluoro-2-methyl-4-phenoxyphenyl)-4-oxo-4,5-dihydro-3H-1-thia-3,5,8-triazaacenaphthylene-2-carboxamide]", "BTK_I_binding pIC50": 7.7}
{"compound": "CC(C)=C(Cl)C(=O)N1CCC[C@@H](NC(=O)c2sc3nccc4c3c2NC(=O)N4c2ccc(Oc3ccccc3)cc2C)C1", "note": "[Example 260, (R)—N-(1-(2-chloro-3-methylbut-2-enoyl)piperidin-3-yl)-5-(2-methyl-4-phenoxyphenyl)-4-oxo-4,5-dihydro-3H-1-thia-3,5,8-triazaacenaphthylene-2-carboxamide]", "BTK_I_binding pIC50": 6.5}
{"compound": "CCNC(C)(C)/C=C(\\C#N)C(=O)N1CCC[C@@H](NC(=O)c2sc3nccc4c3c2NC(=O)N4c2ccc(Oc3ccccc3)cc2C)C1", "note": "[Example 212, (R,E)-N-(1-(2-Cyano-4-(ethylamino)-4-methylpent-2-enoyl)piperidin-3-yl)-5-(2-methyl-4-phenoxyphenyl)-4-oxo-4,5-dihydro-3H-1-thia-3,5,8-triazaacenaphthylene-2-carboxamide]", "BTK_I_binding pIC50": 7.0}
{"target": "unphosphorylated-BTK kinase domain (UP-BTK), GST-tagged human BTK (389-659aa) (Homo sapiens (Human), UniProt Q06187)", "assay": "BTK kinase Lanthascreen binding assay", "settings": "pIC50 = negative log of the IC50 in molar; 60 minutes incubation, 50 nM Tracer 236; read-out: BTK_I_binding pIC50 (converted)", "method_in_brief": "as §1", "units": {"IC50": "nM"}}
{"compound": "Cc1cc(OC2CCCCC2)ccc1N1C(=O)Nc2c(C(=O)N[C@@H]3CCCN(C(=O)/C(C#N)=C/C4CC4)C3)sc3nccc1c23", "note": "[Example 178, (R,E)-N-(1-(2-Cyano-3-cyclopropylacryloyl)piperidin-3-yl)-5-(4-(cyclohexyloxy)-2-methylphenyl)-4-oxo-4,5-dihydro-3H-1-thia-3,5,8-triazaacenaphthylene-2-carboxamide]", "IC50": 100}
{"target": "unphosphorylated-BTK kinase domain (UP-BTK), GST-tagged human BTK (389-659aa) (Homo sapiens (Human), UniProt Q06187)", "assay": "BTK kinase Lanthascreen binding assay", "settings": "unphosphorylated-BTK kinase domain, 50 nM Tracer 236, 60 minutes; pIC50 = negative log of the IC50 in molar", "method_in_brief": "as §1"}
{"compound": "O=C1CCC(NC(=O)c2sc3nccc4c3c2NC(=O)N4c2ccc(Oc3ccccc3)cc2)CN1", "note": "(stereo not shown) [Example 578, 4-Oxo-N-(6-oxopiperidin-3-yl)-5-(4-phenoxyphenyl)-4,5-dihydro-3H-1-thia-3,5,8-triazaacenaphthylene-2-carboxamide]", "BTK_I_binding pIC50": 6.9}
{"compound": "CNCC(=O)N1CCC[C@@H](NC(=O)c2sc3nccc4c3c2NC(=O)N4c2ccc(Oc3ccccc3)c(Cl)c2)C1", "note": "[Example 575, (R)-5-(3-Chloro-4-phenoxyphenyl)-N-(1-(2-(methylamino)acetyl)piperidin-3-yl)-4-oxo-4,5-dihydro-3H-1-thia-3,5,8-triazaacenaphthylene-2-carboxamide]", "BTK_I_binding pIC50": 7.3}
{"compound": "Cc1cc(Oc2ccccc2)ccc1N1C(=O)Nc2c(C(=O)N[C@@H]3CCCN(C(=O)[C@@H]4CCN4)C3)sc3nccc1c23", "note": "[Example 386, N—((R)-1-((S)-Azetidine-2-carbonyl)piperidin-3-yl)-5-(2-methyl-4-phenoxyphenyl)-4-oxo-4,5-dihydro-3H-1-thia-3,5,8-triazaacenaphthylene-2-carboxamide]", "BTK_I_binding pIC50": 6.9}
{"compound": "CN1CC[C@@H](NC(=O)c2sc3nccc4c3c2NC(=O)N4c2cccc(-c3ccccc3)c2)C1", "note": "[Example 587, (R)-5-([1,1′-Biphenyl]-3-yl)-N-(1-methylpyrrolidin-3-yl)-4-oxo-4,5-dihydro-3H-1-thia-3,5,8-triazaacenaphthylene-2-carboxamide]", "BTK_I_binding pIC50": 6.5}
{"compound": "CN(C)C/C=C/C(=O)N1CC[C@@H](NC(=O)c2sc3nccc4c3c2NC(=O)N4c2ccc(Oc3ccccc3)cc2)C1", "note": "[Example 440, (R,E)-N-(1-(4-(Dimethylamino)but-2-enoyl)pyrrolidin-3-yl)-4-oxo-5-(4-phenoxyphenyl)-4,5-dihydro-3H-1-thia-3,5,8-triazaacenaphthylene-2-carboxamide]", "BTK_I_binding pIC50": 7.6}
{"compound": "C=CC(=O)N1C[C@H](NC(=O)c2sc3nccc4c3c2NC(=O)N4c2ccc(Oc3ccccc3)cc2)[C@@H](O)C1", "note": "[Example 463, N-((3S,4S)-1-Acryloyl-4-hydroxypyrrolidin-3-yl)-4-oxo-5-(4-phenoxyphenyl)-4,5-dihydro-3H-1-thia-3,5,8-triazaacenaphthylene-2-carboxamide]", "BTK_I_binding pIC50": 7.9}
{"compound": "Cc1cc(Oc2ccccn2)ccc1N1C(=O)Nc2c(C(=O)N[C@@H]3CCCN(C)C3)sc3nccc1c23", "note": "[Example 306, (R)-5-(2-Methyl-4-(pyridin-2-yloxy)phenyl)-N-(1-methylpiperidin-3-yl)-4-oxo-4,5-dihydro-3H-1-thia-3,5,8-triazaacenaphthylene-2-carboxamide]", "BTK_I_binding pIC50": 6.0}
{"compound": "C=CC(=O)N1CCC[C@@H](NC(=O)c2sc3nccc4c3c2NC(=O)N4c2cccc(-c3ccccn3)c2)C1", "note": "[Example 540, (R)—N-(1-Acryloylpiperidin-3-yl)-4-oxo-5-(3-(pyridin-2-yl)phenyl)-4,5-dihydro-3H-1-thia-3,5,8-triazaacenaphthylene-2-carboxamide]", "BTK_I_binding pIC50": 7.2}
{"compound": "Cc1cc(Oc2ccccc2OC(C)C)ccc1N1C(=O)Nc2c(C(=O)N[C@@H]3CCCN(C)C3)sc3nccc1c23", "note": "[Example 283, (R)-5-(4-(2-Isopropoxyphenoxy)-2-methylphenyl)-N-(1-methylpiperidin-3-yl)-4-oxo-4,5-dihydro-3H-1-thia-3,5,8-triazaacenaphthylene-2-carboxamide]", "BTK_I_binding pIC50": 6.2}
{"compound": "C=CC(=O)N1CCC[C@@H](NC(=O)c2sc3nccc4c3c2NC(=O)N4c2ccc(OC(F)(F)F)cc2)C1", "note": "[Example 416, (R)—N-(1-Acryloylpiperidin-3-yl)-4-oxo-5-(4-(trifluoromethoxy)phenyl)-4,5-dihydro-3H-1-thia-3,5,8-triazaacenaphthylene-2-carboxamide]", "BTK_I_binding pIC50": 6.7}
{"compound": "C=CC(=O)N1CCC[C@@H](NC(=O)c2sc3nccc4c3c2NC(=O)N4c2cccc(-c3ccccc3)c2)C1", "note": "[Example 421, (R)-5-([1,1′-Biphenyl]-3-yl)-N-(1-acryloylpiperidin-3-yl)-4-oxo-4,5-dihydro-3H-1-thia-3,5,8-triazaacenaphthylene-2-carboxamide]", "BTK_I_binding pIC50": 7.9}
{"compound": "C=CC(=O)N1CC[C@@H](C(=O)Nc2sc3nccc4c3c2NC(=O)N4c2ccc(Oc3ccccc3)cc2C)C1", "note": "[Example 545, (R)-1-Acryloyl-N-(5-(2-methyl-4-phenoxyphenyl)-4-oxo-4,5-dihydro-3H-1-thia-3,5,8-triazaacenaphthylen-2-yl)pyrrolidine-3-carboxamide]", "BTK_I_binding pIC50": 6.9}
{"compound": "C=CC(=O)N1CC[C@@H](NC(=O)c2sc3nccc4c3c2NC(=O)N4c2nnc(Oc3ccccc3)cc2C)C1", "note": "[Example 351, (R)—N-(1-Acryloylpyrrolidin-3-yl)-5-(4-methyl-6-phenoxypyridazin-3-yl)-4-oxo-4,5-dihydro-3H-1-thia-3,5,8-triazaacenaphthylene-2-carboxamide]", "BTK_I_binding pIC50": "<5"}
